From EP4678629A1, “IONIZABLE LIPID MOLECULE, PREPARATION METHOD THEREFOR AND USE THEREOF” (Maxirna (Shanghai) Pharmaceutical Co., Ltd., priority 2023, dated 2024)

Key:
DC2.4 cells = experiment: In vitro transfection of cells with eGFP-mRNA lipid nanoparticle (LNP preparation), fluorescence imaging and flow cytometry; format: cell-based, mouse; settings: eGFP positivity rate, DC2.4 cells, 200 ng of mRNA per well, after 24 hours
Summary of the method: (§1)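 Mouse bone marrow-derived DC2.4 dendritic cells seeded at 2 × 10^5 cells/well in DMEM with 10% FBS, transfected with eGFP-mRNA LNPs the next day at 37 °C, 5% CO2. After 24 hours, viability, eGFP-positive rate and mean fluorescence intensity read by fluorescence imaging and flow cytometry.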

[1] = as above; format: cell-based, mouse; settings: mouse, dc2.4 cells, 200 ng of mRNA per well, after 24 hours; read-out: Cell viability, %
Summary of the method: as §1

[2] = Size and polydispersity index (PDI) of the lipid nanoparticle by dynamic light scattering; format: physicochemical; settings: LNP encapsulating eGFP mRNA, ionizable lipid/DOPE/cholesterol/DMG-PEG2000 50/10/48.25/1.25 mol%, N/P 12; for Particle size: in nm (unit assumed)
Summary of the method: (§2)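 LNPs were made by microfluidic mixing of ionizable lipid/DOPE/cholesterol/DMG-PEG2000 (50/10/48.25/1.25 mol%) in ethanol with eGFP mRNA in 20 mM citrate pH 6.1, N/P 12, then ultrafiltered into DPBS and 0.2 µm filtered. Size and PDI by DLS at 173° backscatter; encapsulation by Ribogreen.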

[3] = Encapsulation efficiency of the lipid nanoparticle (eGFP mRNA) by Ribogreen method; format: physicochemical; settings: LNP encapsulating eGFP mRNA, ionizable lipid/DOPE/cholesterol/DMG-PEG2000 50/10/48.25/1.25 mol%, N/P 12
Summary of the method: as §2

| Structure (SMILES) | PDI [2] | Particle size [2] | Encapsulation rate, % [3] [%] | Positive rate, % (DC2.4 cells) [%] | viability at 24 h [1] [%] |
| --- | --- | --- | --- | --- | --- |
| CCCCCCCCCCCOC(=O)CCCCN(CCCO)CCCN(CCCCC(=O)OCCCCCCCCCCC)CCCCC(=O)OCCCCCCCCCCC [Example 42, Diundecyl 5,5'-((3-((3-hydroxypropyl)(5-oxo-5-(undecyloxy)pentyl)amino)propyl)azadiyl)dipentanoate] | 0.11 | 98.73 | 98.13 | 96.69 | 94.1 |
| CCCCCCCCCCCOC(=O)CCCCN(CCCCO)CCCN(CCCCC(=O)OCCCCCCCCCCC)CCCCC(=O)OCCCCCCCCCCC [Example 43, Diundecyl 5,5'-((3-((4-hydroxybutyl)(5-oxo-5-(undecyloxy)pentyl)amino)propyl)azahexyl)dipentanoate] | 0.14 |  | 87.08 | 97.48 | 88.2 |
| CCCCCCCCCCCCOC(=O)CCCCCN(CCO)CCCN(CCCCCC(=O)OCCCCCCCCCCCC)CCCCCC(=O)OCCCCCCCCCCCC [Example 44, Didodecyl 6,6'-((3-((6-(dodecoxy)-6-oxohexyl)(2-hydroxyethyl)amino)propyl)azahexyl)dihexanoate] | 0.20 |  | 99.38 | 94.2 | 91.9 |
| CCCCCCCCCCCCOC(=O)CCCCCN(CCCO)CCCN(CCCCCC(=O)OCCCCCCCCCCCC)CCCCCC(=O)OCCCCCCCCCCCC [Example 45, Didodecyl 6,6'-((3-((6-(dodecoxy)-6-oxohexyl)(3-hydroxypropyl)amino)propyl)azahexyl)dihexanoate] | 0.20 | 84.66 | 99.60 | 95.29 | 95 |
| CCCCCCCCCCCCOC(=O)CCCCCN(CCCCO)CCCN(CCCCCC(=O)OCCCCCCCCCCCC)CCCCCC(=O)OCCCCCCCCCCCC [Example 46, Didodecyl 6,6'-((3-((6-(dodecyloxy)-6-oxohexyl)(4-hydroxybutyl)amino)propyl)azanediyl)dihexanoate] | 0.22 | 72.75 | 99.86 | 96.64 | 97.4 |
| CCCCCCCCCCCCOC(=O)CCCCCCN(CCCO)CCCN(CCCCCCC(=O)OCCCCCCCCCCCC)CCCCCCC(=O)OCCCCCCCCCCCC [Example 48, Didodecyl 7,7'-((3-((7-(dodecyloxy)-7-oxoheptyl)(3-hydroxypropyl)amino)propyl)azanediyl)diheptanoate] | 0.16 | 76.18 | 99.52 | 97.26 | 94 |
| CCCCCCCCCCCCCCOC(=O)CCCCCCN(CCCO)CCCN(CCCCCCC(=O)OCCCCCCCCCCCCCC)CCCCCCC(=O)OCCCCCCCCCCCCCC [Example 57, Ditetradecyl 7,7'-((3-((3-hydroxypropyl)(7-oxo-7-(tetradecyloxy)heptyl)amino)propyl)azanediyl)diheptanoate] | 0.17 | 68.32 | 99.36 | 97.36 | 76.9 |
| CCCCCCCCCCCCCCOC(=O)CCCCCCN(CCCCO)CCCN(CCCCCCC(=O)OCCCCCCCCCCCCCC)CCCCCCC(=O)OCCCCCCCCCCCCCC [Example 58, Ditetradecyl 7,7'-((3-((4-hydroxybutyl)(7-oxo-7-(tetradecyloxy)heptyl)amino)propyl)azanediyl)diheptanoate] | 0.16 | 79.13 | 99.17 | 87.44 | 63.2 |
| CCCCCCCCCCCCCCOC(=O)CCCCCCCN(CCO)CCCN(CCCCCCCC(=O)OCCCCCCCCCCCCCC)CCCCCCCC(=O)OCCCCCCCCCCCCCC [Example 59, Ditetradecyl 8,8'-((3-((2-hydroxyethyl)(8-oxo-8-(tetradecyloxy)octyl)amino)propyl)azanediyl)dioctanoate] | 0.08 |  | 91.15 | 96.89 | 55.6 |
| CCCCCCCCCCCCCCOC(=O)CCCCCCCN(CCCO)CCCN(CCCCCCCC(=O)OCCCCCCCCCCCCCC)CCCCCCCC(=O)OCCCCCCCCCCCCCC [Example 60, Ditetradecyl 8,8'-((3-((3-hydroxypropyl)(8-oxo-8-(tetradecyloxy)octyl)amino)propyl)azanediyl)dioctanoate] | 0.10 | 65.40 | 99.46 | 97.14 | 72.3 |
| CCCCCCCCCCCCCCOC(=O)CCCCCCCN(CCCCO)CCCN(CCCCCCCC(=O)OCCCCCCCCCCCCCC)CCCCCCCC(=O)OCCCCCCCCCCCCCC [Example 61, Ditetradecyl 8,8'-((3-((4-hydroxybutyl)(8-oxo-8-(tetradecyloxy)octyl)amino)propyl)azanediyl)dioctanoate] | 0.13 | 82.47 | 97.38 | 95.85 | 71.2 |

Second part, led by results:

| PDI [2] | Particle size [2] | Encapsulation rate, % [3] [%] | Structure (SMILES) | Positive rate, % (DC2.4 cells) [%] | viability at 24 h [1] [%] |
| --- | --- | --- | --- | --- | --- |
| 0.26 | 83.85 | 99.77 | CCCCCCCCCCCCOC(=O)CCCCCCN(CCO)CCCN(CCCCCCC(=O)OCCCCCCCCCCCC)CCCCCCC(=O)OCCCCCCCCCCCC [Example 47, Didodecyl 7,7'-((3-((7-(dodecyloxy)-7-oxoheptyl)(2-hydroxyethyl)amino)propyl)azanediyl)diheptanoate] | 97.39 | 88.5 |
| 0.15 | 74.58 | 99.79 | CCCCCCCCCCCCOC(=O)CCCCCCN(CCCCO)CCCN(CCCCCCC(=O)OCCCCCCCCCCCC)CCCCCCC(=O)OCCCCCCCCCCCC [Example 49, Didodecyl 7,7'-((3-((7-(dodecyloxy)-7-oxoheptyl)(4-hydroxybutyl)amino)propyl)azanediyl)diheptanoate] | 97.38 | 91.6 |
| 0.20 | 76.74 | 99.63 | CCCCCCCCCCCCOC(=O)CCCCCCCN(CCO)CCCN(CCCCCCCC(=O)OCCCCCCCCCCCC)CCCCCCCC(=O)OCCCCCCCCCCCC [Example 50, Didodecyl 8,8'-((3-((8-(dodecyloxy)-8-oxooctyl)(2-hydroxyethyl)amino)propyl)azanediyl)dioctanoate] | 99.74 | 90.4 |
| 0.18 | 75.07 | 99.28 | CCCCCCCCCCCCOC(=O)CCCCCCCN(CCCO)CCCN(CCCCCCCC(=O)OCCCCCCCCCCCC)CCCCCCCC(=O)OCCCCCCCCCCCC [Example 51, Didodecyl 8,8'-((3-((8-(dodecyloxy)-8-oxooctyl)(3-hydroxypropyl)amino)propyl)azanediyl)dioctanoate] | 99.64 | 92 |
| 0.17 | 69.63 | 99.18 | CCCCCCCCCCCCOC(=O)CCCCCCCN(CCCCO)CCCN(CCCCCCCC(=O)OCCCCCCCCCCCC)CCCCCCCC(=O)OCCCCCCCCCCCC [Example 52, Didodecyl 8,8'-((3-((8-(dodecyloxy)-8-oxooctyl)(4-hydroxybutyl)amino)propyl)azanediyl)dioctanoate] | 85.37 | 82.9 |
| 0.09 | 91.34 | 97.67 | CCCCCCCCCCCCCCOC(=O)CCCCCN(CCO)CCCN(CCCCCC(=O)OCCCCCCCCCCCCCC)CCCCCC(=O)OCCCCCCCCCCCCCC [Example 53, Ditetradecyl 6,6'-((3-((2-hydroxyethyl)(6-oxo-6-(tetradecyloxy)hexyl)amino)propyl)azanediyl)dihexanoate] | 86.07 | 68.6 |
| 0.14 | 72.45 | 98.91 | CCCCCCCCCCCCCCOC(=O)CCCCCN(CCCO)CCCN(CCCCCC(=O)OCCCCCCCCCCCCCC)CCCCCC(=O)OCCCCCCCCCCCCCC [Example 54, Ditetradecyl 6,6'-((3-((3-hydroxypropyl)(6-oxo-6-(tetradecyloxy)hexyl)amino)propyl)azanediyl)dihexanoate] | 93.13 | 75.9 |
| 0.10 | 71.95 | 98.32 | CCCCCCCCCCCCCCOC(=O)CCCCCN(CCCCO)CCCN(CCCCCC(=O)OCCCCCCCCCCCCCC)CCCCCC(=O)OCCCCCCCCCCCCCC [Example 55, Ditetradecyl 6,6'-((3-((4-hydroxybutyl)(6-oxo-6-(tetradecyloxy)hexyl)amino)propyl)azanediyl)dihexanoate] | 92.64 | 86.6 |
| 0.14 | 64.31 | 99.68 | CCCCCCCCCCCCCCOC(=O)CCCCCCN(CCO)CCCN(CCCCCCC(=O)OCCCCCCCCCCCCCC)CCCCCCC(=O)OCCCCCCCCCCCCCC [Example 56, Ditetradecyl 7,7'-((3-((2-hydroxyethyl)(7-oxo-7-(tetradecyloxy)heptyl)amino)propyl)azanediyl)diheptanoate] | 93.64 | 80.5 |
